Measurements as given in US20040059104A1, “Nucleotide mimics and their prodrugs” (priority 2002, published 2004).

Experiments:
HIV-1RF = assay: Anti-HIV-1 cytoprotection assay in CEM-SS cells; format: cell-based; details: CEM-SS cells infected with HIV-1RF, MOI approximately 0.01, 6 days, MTS; read-out: CEM-SS IC50 (Anti-HIV Screening)
Protocol: (§1) ollowing paper: Structure-Activity and Cross-Resistance unodeficiency Virus Type 1-Specific ckheit, Jr. et al., Antimicrobial Agents and s were evaluated in CEM-SS cell cultures V-1RF at an MOI of approximately 0.01. At he soluble tetrazolium-based dye MTS viability and quantify compound toxicity of metabolically active cells to yield a soluble analysis of cell viability and compound
Efficacy Evaluation in CEM-SS Cells Anti-HIV-1 Cytoprotection Assay
Cell Preparation—CEM-SS cells were passaged in T-75 flasks prior to use in the antiviral assay. On the day preceding the assay, the cells were split 1:2 to assure they were in an exponential growth phase at the time of infection. Total cell and viability quantification was performed using a hemacytometer and trypan blue exclusion. Cell viability was greater than 95% for the cells to be utilized in the assay. The cells were resuspended at 5×10^4 cells/ml in tissue culture medium and added to the drug-containing microtiter plates in a volume of 50 μl.
Virus Preparation—The virus used for these tests was the lymphocytropic virus strain HIV-1RF. This virus was obtained from the NIH AIDS Research and Reference Reagent Program and was grown in CEM-SS cells for the production of stock virus pools. For each assay, a pre-titered aliquot of virus was removed from the freezer (−80° C.) and allowed to thaw slowly to room temperature in a biological safety cabinet. The virus was resuspended and diluted into tissue culture medium such that the amount of virus added to each well in a volume of 50 μl was the amount determined to give between 85 to 95% cell killing at 6 days post-infection.
(§2) At assay termination, the assay plates were stained with the soluble tetrazolium-based dye MTS (CellTiter Reagent Promega) to determine cell viability and quantify compound toxicity. MTS is metabolized by the mitochondrial enzymes of metabolically active cells to yield a soluble formazan product, allowing the rapid quantitative analysis of cell viability and compound cytotoxicity. […] At termination of the assay, 20 μL of MTS reagent was added per well. The microtiter plates were then incubated 4-6 hrs at 37° C. for the HIV cytoprotection assay; the incubation intervals were chosen based on empirically determined times for optimal dye reduction. Adhesive plate sealers were used in place of the lids, the sealed plate was inverted several times to mix the soluble formazan product and the plate was read spectrophotometrically at 490 nm with a Molecular Devices Vmax plate reader.

CEM cells = assay: Cell uptake procedure (intracellular nucleotide levels by HPLC); format: cell-based, Human; details: 24 hour incubation, limit of detection about 5 pmol/10^6 cells
Protocol: CEM cells were resuspended in RPMI at 1×10^7 cells/mL. The appropriate amount of each compound was added to well and then 0.5 ml of the cells was aliquoted into the appropriate number of wells of a 24-well plate and incubated the cells at 37° C. Cells were harvested after 24 hours of incubation. To harvest cells they were transferred to a microfuge tube and spun for one minute at high speed. The samples were washed in PBS containing 1 mg/ml BSA and re-centrifuged. The PBS was then aspirated and 200 μL of ice-cold 60% methanol was added to extract the nucleotides. The extracts were incubated overnight at −20° C. The next day the samples were spun at high speed in a microfuge for 20 minutes and the supernatant transferred to clean tubes and dried in the speed vac. After drying the samples were resuspended in 50 μl, filtered, and the samples then directly injected onto the HPLC. The nucleotides were analyzed using reverse phase HPLC with ion-pairing agents for separation of the nucleotides. The procedure was adapted from the following paper: Furman, et al., Proc. Natl. Acad. Sci. USA 1986, 83, 8333-8337.
The limit of detection was estimated to be 5 pmol/10^6 cells.

in vitro [1] = details: bovine, serum
Protocol: Typically the total volume used for the experiment was 500 μl. The final concentrations of the reaction components were as follows:
The reacton mixtures were made up and incubated at 37° C. At appropriate times aliquots of 25 μl were removed and added to 65 μl ice-cold methanol. These solutions were our at −20° C. and typically overnight. After incubation samples were inutes at high speed in a microcentrifuge. The supernatant was nd the extract was dried under vacuum in a LabConco Centrivap Concentrator. The dried extracts were resuspended in dH2O and filtered to remove particulate before analysis on reverse phase HPLC.
The reverse phase HPLC columns used for the analysis were either a Phenomenex C18 Aqua column (2×100 mm) or the Phenomenex C18 Aqua column (3×150 mm) used with the appropriate guard column. The HPLC was run at 0.2 ml/min (for the 2×100 mm column) or at 0.5 ml/min (for the 3×150 mm column) with the following buffer system: 5 mM tetrabutylammonium acetate, 50 mM ammonium phosphate, and an acetonitrile gradient running from 5% up to as high as 60%. The amount of remaining parent compound at each time point was used to determine the half-life of the compound. […] Unmodified nucleoside triphosphates were used as positive controls.

in vitro [2] = details: human
Protocol: The stability of compounds in cell extracts was examined as follows:
Cell lysis buffer was added to cell pellets and the cells frozen and thawed 3× using dry ice. The lysis buffer (LB) was composed of the following: 50 mM Tris-HCl, pH 7.4 (100 μl/ml 10× stock), 20% glycerol (200 μl/ml), and 0.5% Triton X-100 (5 μl/ml). 100 μl of LB was added to each microfuge tube containing 10^7 frozen CEM cells. After the cells were lysed the extracts were centrifuged at high speed in a microcentrifuge for 5 minutes and the clarified cell extract transferred to a new tube. The cell stability reaction mixtures contained concentrations of buffer, magnesium, nucleotide, and cell extract as shown below:
The reaction mixtures were incubated at 37° C. At each time point, including at time zero, 12.5 μl aliquots were added to 40 μl ice-cold methanol. […] The samples were incubated in methanol for at least 60 minutes and typically overnight at −20° C. prior to further processing. The cell extracts were centrifuged at high speed in refrigerated microcentrifuge for 20 minutes and the supernatant transferred to a new tube. The extract was then dried under vacuum in a LabConco Centrivap Concentrator. The samples were then resuspended in 40 or 50 μl dH2O, filtered to remove any particulate, and analyzed by reverse phase HPLC.
The reverse phase HPLC columns used for the analysis were either a Phenomenex C18 Aqua column (2×100 mm) or the Phenomenex C18 Aqua column (3×150 mm) used with the appropriate guard column. The HPLC flow rate was either 0.2 ml/min (for the 2×100 mm column) or 0.5 ml/min (for the 3×150 mm column) with the following buffer system: 5 mM tetrabutylammonium acetate, 50 mM ammonium phosphate, and an acetonitrile gradient running from 5% up to as high as 60%. The amount of remaining parent compound at each time point was used to determine the half-life of the compound. […] Unmodified nucleoside triphosphates were used as positive controls.

Escherichia coli = assay: Antimicrobial assay, minimal inhibitory concentration; format: cell-based
Protocol: To examine the antimicrobial potential of the nucleotide mimics of the present invention an assay was employed that allowed the screening of a large number of compounds simultaneously. The type of bacteria chosen to screen the compounds are organisms associated with human disease and represent major groups of bacteria based on their structure and metabolism. Bacterial cultures of Escherichia coli and Staphylococcus aureus were incubated overnight at 37° C. in a shaker incubator. A lawn of each overnight bacterial culture was made by plating […] of bacteria on agar plates containing Nutrient Broth. Immediately after plating, sterile blank paper discs were put on top of the lawn and a compound was applied to each blank paper disc. Plates were then incubated overnight and examined for the inhibition of bacterial growth the following day. […] The plates were incubated overnight at 37° C. and then examined spectrophotometrically at 600 nm to determine the minimum concentration of each compound that inhibited replication of bacteria as determined by no increase in absorbance at 600 nm.

CEM-SS cells = assay: Compound toxicity in CEM-SS cells (MTS staining); format: cell-based; details: read-out: CEM-SS TC50
Protocol: as §1, §2

[3] = target: T1, HIV Reverse Transcriptase (Type B, 66 kDa subunit) (Human immunodeficiency virus type 1 group M subtype B, UniProt P04585); assay: HIV Reverse Transcriptase inhibition assays (RNA-directed DNA polymerization, PicoGreen fluorescence); format: biochemical; details: Table 1; template (homopolymer or heteropolymer RNA) not stated; read-out: Ki, Inhibition of HIV Reverse Transcriptase by Nucleotide Mimics
T1 construct: purified HIV Reverse Transcriptase (Type B, 66 kDa subunit)
Protocol: The assays employed to measure inhibition of HIV Reverse Transcriptase (HIV RT) catalyzed/RNA-directed DNA polymerization are described below. The effectiveness of the compounds of the present invention as inhibitors of HIV RT-catalyzed DNA polymerization was measured in the following assays.
This assay was used to measure the ability of the nucleotide mimics of the present invention to inhibit the enzymatic synthesis of complementary strand DNA from a DNA-primed template of homopolymeric RNA. This assay is a modification of a published procedure (Seville, et al., “Fluorometric Assay for DNA Polymerases and Reverse Transcriptase”, BioTechniques 1996, 21, 664-72).
The compounds were tested at various concentrations up to 500 μM final concentration. DNA polymerase activity was measured in a reaction buffer containing primed-RNA template and dTTP diluted to appropriate concentrations in assay buffer. Nucleotide mimics of the present invention were diluted in buffer and pipetted into the wells of a 96-well plate. The reaction was initiated by addition of enzyme and allowed to proceed at 37° C. for 10 minutes. The reaction was quenched by addition of 5 μL 0.2 M EDTA, pH 8.0.
200 μL of diluted PicoGreen dsDNA Quantitation Reagent (Molecular Probes, Inc, Eugene, Oreg.) was added to each well of a 96-well plate and incubated at room temperature for 5 minutes. Plate wells were read on a microplate fluorometer (Molecular Devices Corp., Sunnyvale, Calif.). The wells were excited at 480 nm and the fluorescence emission intensity (RFU) was measured at 520 nm. The percentage of inhibition was calculated according to the following equation:
% Inhibition=[1−(RFU in test reaction−RFU in blank)/(RFU in control reaction−RFU in blank)]×100.
Each inhibitor was titrated over an appropriate range of concentrations, and inhibition constants were determined using the following equations:
v=Vm[S]/(Km(1+[I]/Ki)+[S])
Certain compounds of the present invention were also tested to determine their ability to inhibit HIV RT-catalyzed DNA polymerization on a heteropolymeric primed-RNA template in the presence of all four natural deoxynucleotide triphosphate (dNTP) substrates. This assay is a modification of a published procedure (Parker et al., “Mechanism of Inhibition of Human Immunodeficiency Virus Type 1 Reverse Transcriptase and Human DNA Polymerases α, β, and γ by the 5′-Triphosphates of Carbovir,3′-Azido-3′-deoxythymidine,2′-3′-Dideoxyguanosine, and 3′-Deoxythymidine”, J. Biol. Chem. 1991, 266 (3), 1754-62).
HIV RT DNA polymerase activity was measured in a reaction buffer containing primed-ribosomal RNA template and dNTPs diluted to appropriate concentrations in assay buffer and pipetted into 1.5 mL microcentrifuge tubes. Nucleotide mimics of the present invention were diluted in buffer and tested at various concentrations up to 5 μM final concentration. The reaction was initiated by addition of enzyme and allowed to proceed at 42° C. for 60 to 90 minutes. The reaction was quenched by addition of 12 μL 0.2 M EDTA, pH 8.0.
50 μL each of reaction was transferred to the well of a 96-well plate (in duplicate). 200 μL of diluted PicoGreen dsDNA Quantitation Reagent was added to each well of a 96-well plate and incubated at room temperature for 5 minutes. Plate wells were read on a microplate fluorometer. The wells were excited at 480 nm and the fluorescence emission intensity (RFU) was measured at 520 nm. The percentage of inhibition and inhibition constants […] were determined for representative compounds as described above.

[4] = overnight at 37° C., tested 0-200 μg/ml, NA = Not active
[5] = value in brackets beside the μg/ml value

| Compound | IC50 (HIV-1RF) | Intracellular levels of 27 (CEM cells; incubation concentration 25 μM) | Intracellular levels of 27 (CEM cells; incubation concentration 50 μM) | Intracellular levels of 27 (CEM cells; incubation concentration 100 μM) | Half-Life, Serum Half-Lives of AZT Triphosphate Mimic Prodrugs (in vitro [1]) | Half-Life, Cell Extract Half-Lives of AZT 5'-α-P-borano-β,γ-(difluoromethylene) triphosphate Prodrugs (in vitro [2]) | E. coli MIC (Escherichia coli; [4]) | E. coli MIC (Escherichia coli; [5]) | CC50 (CEM-SS cells) | Ki [3] |
| --- | --- | --- | --- | --- | --- | --- | --- | --- | --- | --- |
| 3′-Azido-3′-deoxythymidine 5′-α-P-borano-γ-O-(S-pivaloyl-2-thioethyl)-β,γ-(difluoromethylene)triphosphate [Compound 70] | 0.95 µM | 10.5 pmol/10^6 cells | 15.6 pmol/10^6 cells | 19.7 pmol/10^6 cells | >48 h | 15 h | 6 µg/mL | (8.8) uM | > 200 µM |  |
| 3′-Azido-3′-deoxythymidine 5′-α-P-borano-β,γ-diluoromethylene-γ-O-(4-nitrophenyl)triphosphate [Compound 43] | 6.43 µM |  |  |  |  |  |  |  | 125 µM |  |
| BP(=O)(OC[C@H]1O[C@@H](n2cc(C)c(=O)[nH]c2=O)C[C@H]1N=[N+]=[N-])OP(=O)(O)C(F)(F)P(=O)(O)Oc1ccccc1 (stereo partly drawn) [Compound 42, 3′-Azido-3′-deoxythymidine 5′-α-P-borano-β,γ-difluoromethylene-γ-O-phenyltriphosphate] | 2.54 µM |  |  |  | >48 h |  |  |  | 32.1 µM | 0.113 µM |
| 3′-Azido-3′-deoxythymidine 5′-α-P-borano-β,γ-difluoromethylene-γ-O-methyltriphosphate [Compound 40] | 4 µM |  |  |  |  |  | 25 to 50 µg/mL | (40-80) uM | > 200 µM | 0.069 µM |
